In PMC9376960, “Ruthenium(II)–Tris-pyrazolylmethane Complexes Inhibit Cancer Cell Growth by Disrupting Mitochondrial Calcium Homeostasis” (Journal of Medicinal Chemistry, 2022):

Columns and labels:
[1] = tested on: RD; test: MTT antiproliferative assay; type: cell-based, human; settings: 72 h, mean ± SD
Procedure: All of the cell lines were cultivated in DMEM medium (high glucose 4.5 g L^–1, PAA, Pasching, Austria) supplemented with gentamycin (50 μg mL^–1, Serva, Heidelberg, Germany) and 10% heat-inactivated fetal bovine serum (PAA). The medium for MRC5pd30 cells was further supplemented by 1% nonessential amino acids (Sigma-Aldrich, Prague, Czech Republic). All cells were cultured as adherent monolayers in a humidified incubator at 37 °C in a 5% CO2 atmosphere and subcultured twice a week with an appropriate plating density. In vitro antiproliferative activity of Ru complexes was determined by the MTT or, alternatively, SRB assay as already described,[84] after 72 h of incubation of cells with various concentrations of the Ru complex. The reported IC50 values are an average of three independent experiments, each consisting of three replicates per concentration.

[2] = tested on: CHO-K1; test: MTT assay, wild-type cells; type: cell-based, Chinese hamster; settings: 72 h
Source text: (§1) The human cervical carcinoma HeLa cells and human colorectal carcinoma cells HCT116 were kindly supplied by Professor B. Keppler, University of Vienna (Austria). Human rhabdomyosarcoma RD cells were purchased from the American Type Culture Collection (ATCC, Manassas, VA). Human breast cancer MCF-7 cells, human skin melanoma 518A2 cells, and human MRC5pd30 cells derived from normal lung tissue were purchased from the European Collection of Authenticated Cell Cultures (ECACC) (Salisbury, U.K.). Chinese hamster ovary CHO-K1 cell line (wild type) and its derivative MMC-2 carrying the ERCC3/XPB mutation (NER-deficient) cell line were kindly supplied by Dr. […], Cancer Research Institute, Slovak Academy of Sciences, Bratislava (Slovakia). In vitro antiproliferative activity of Ru complexes was determined by the MTT or, alternatively, SRB assay as already described,[84] after 72 h of incubation of cells with various concentrations of the Ru complex. The reported IC50 values are an average of three independent experiments, each consisting of three replicates per concentration.

[3] = tested on: MMC-2; test: MTT assay, NER-deficient cells; type: cell-based, Chinese hamster; settings: 72 h
Source text: as §1

[4] = tested on: HCT116 (3D); test: Cytotoxicity in 3D spheroids (colonospheres), Cell Titer-Glo 3D; type: cell-based, human
Procedure: A spontaneous spheroid formation was used to generate colonospheres derived from the HCT116 cell line. The HCT116 cells were seeded on 96-well ultralow attachment plates (1400 cells/well) and cultivated in a tumor sphere-forming medium (DMEM/F12, supplemented with B27 (Invitrogen), BSA, bFGF (10 ng mL^–1), and EGF (20 ng mL^–1)) for 4 days. After the incubation period, colonospheres were treated with Ru complexes for another 3 days. The viability of colonospheres was determined by the Cell Titer-Glo 3D cell viability assay (Promega) according to the manufacturer’s instructions. The reported IC50 values are the average of three independent experiments, each consisting of three replicates per concentration level. Bright-field images of the spheroids were taken as well to determine the effect on the morphology of the spheroids.

[5] = tested on: MCF-7; parameters: method as in PMID 30740808; settings: MTT, 72 h; cited from earlier work
[6] = tested on: HeLa; parameters: method as in PMID 30740808; settings: MTT, 72 h; cited from earlier work
[7] = tested on: 518A2; parameters: method as in PMID 32555811; settings: MTT, 72 h; cited from earlier work
[8] = tested on: HCT116; parameters: method as in PMID 30740808; settings: MTT, 72 h; cited from earlier work
[9] = tested on: MRC5pd30; parameters: method as in PMID 30740808; settings: MTT, 72 h; cited from earlier work
[10] = tested on: DNA; parameters: method as in PMID 25888926, PMID 28623355; settings: cited from earlier work

N.N.[Cl][Pt][Cl] [cisplatin] gave an IC50 [1] of 4.6 ± 0.3 µM, an IC50 [2] of 54 ± 6 µM and an IC50 [3] of 5.5 ± 0.8 µM. The “effect on the morphology of 3D spheroids” value ([4]; 20 µM, 72 h, bright-field images) was “heterogeneous morphology with several dissociated cell clumps”, the IC50 ([4]; Cell Titer-Glo, spheroids, 72 h of treatment) was 44.6 ± 1.8 µM and the IC50 [5] was 13 ± 3 µM. For the same molecule, the IC50 [6] was 14 ± 3 µM, the IC50 [7] was 2.6 ± 0.7 µM and the IC50 [8] was 8 ± 1 µM. The IC50 [9] was 11.7 ± 0.8 µM and the “intracellular platinum that reaches the nucleus and binds to DNA” value [10] was 2–3%.
